Data taken from the NIST ThermoML archive (doi:10.1016/j.fluid.2009.04.006).
Several values for one entry are separate records, joined by “and”; a condition that tells them apart may be missing. Equal values may be shown once.

Details: Liquid, Closed cell (Static) method

NCCOCCOCCN [1,2-bis(2-aminoethoxy)ethane]
Details | vapor or sublimation pressure [kPa]
292.92 K | 0.00358
302.88 K | 0.00757
312.87 K | 0.0156
322.91 K | 0.0297
332.89 K | 0.0545
342.89 K | 0.104
353.02 K | 0.184

OCCNCc1ccccc1 [2-benzylaminoethanol]
Details | vapor or sublimation pressure
292.82 K | 0.000782 kPa
312.85 K | 0.0052 kPa
332.88 K | 0.0271 kPa
332.89 K | 0.027 kPa
352.92 K | 0.114 kPa
362.91 K | 0.239 kPa and 0.231 kPa

CN(C)CCN(C)C [N,N,N',N'-tetramethyl-1,2-diaminoethane]
Details | vapor or sublimation pressure [kPa]
294.75 K | 1.766
304.74 K | 3.055
314.76 K | 5.055
324.95 K | 8.115
334.99 K | 12.53
344.96 K | 19.34
354.98 K | 28.12
364.97 K | 40.04

CN1CCOCC1 [N-methylmorpholine]
Details | vapor or sublimation pressure
273.18 K | 6.9 kPa
283.12 K | 12.94 kPa and 12.93 kPa
293.06 K | 23.06 kPa
303.04 K | 39.34 kPa
313.05 K | 64.46 kPa
323.08 K | 101.73 kPa
333.07 K | 155.32 kPa
343.08 K | 230.31 kPa
353.08 K | 332.76 kPa
